From US8580825B2, “Oxadiazole inhibitors of leukotriene production” (Boehringer Ingelheim International GmbH, priority 2010, dated 2013)

Tests used:
[1] = tested on: biomarkers for myocardial infarction risk; details: clinical trial; cited from earlier work
[2] = tested on: synthesis of LTB4 in human whole blood; assay: human whole blood LTB4 production inhibition assay; assay type: cell-based; details: calcimycin stimulated, read-out: hWB LTB4 IC50
Method in brief: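 LTB4 levels in plasma were measured by antibody-based HTRF after heparinized human whole blood, pretreated with compound (15 min, 37° C), was challenged with 20 μM calcimycin for 30 min at 37° C.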

[3] = molecular target: T1, recombinant human FLAP protein (Homo sapiens, UniProt P20292); assay: FLAP binding assay (Scintillation Proximity Assay, displacement of [125I]L-691,831); details: read-out: FLAP SPA IC50
T1 construct: made in house; host or cells: Sf9 insect cells (100,000xg membrane fraction used)
T1 sequence (P20292 1-161): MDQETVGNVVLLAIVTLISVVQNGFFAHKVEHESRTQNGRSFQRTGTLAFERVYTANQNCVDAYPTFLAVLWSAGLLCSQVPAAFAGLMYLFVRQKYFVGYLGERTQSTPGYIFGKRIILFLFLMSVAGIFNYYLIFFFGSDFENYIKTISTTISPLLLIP
Method in brief: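 Scintillation proximity displacement of [125I]L-691,831 (0.08 nM) from membranes of sf9 cells expressing recombinant human FLAP (5 μg/well) on WGA SPA beads, pH 7.5 Tris buffer. Plates shaken 2 h before counting. Non-specific binding defined with 10 μM unlabelled L-691,831.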

human glomerulonephritis = details: clinical trial; cited from earlier work
ApoE−/−xCD4dnTβRII mice = details: infusion, treated for four weeks; cited from earlier work
[4] = tested on: apoE/LDL-R double knockout mice; details: oral dosing, high-fat diet from 2 months of age to 6 months; cited from earlier work

SMILES | IC50 [2] [nM] | IC50 [3] [nM] | further results
O=C(O)[C@@H](c1ccc(OCc2ccc3ccccc3n2)cc1)C1CCCC1 [DG-031] | – | – | effect on biomarkers for myocardial infarction risk [1]: dose-dependent suppression of several biomarkers
CC(C)[C@](C)(c1ccc(-c2cnc(N)nc2)nc1)c1noc(-c2cnn(CC(=O)NC3CCOCC3)c2)n1 [Example 154, 2-[4-(3-{(R)-1-[6-(2-Amino-pyrimidin-5-yl)-pyridin-3-yl]-1,2-dimethyl-propyl}-1,2,4-oxadiazol-5-yl)-pyrazol-1-yl]-N-(tetrahydro-pyran-4-yl)-acetamide] | 550 | 21 | –
CNc1cnc(-c2ccc([C@@](C)(c3noc(-c4cnn(CC(C)(C)O)c4)n3)C3CC3)cn2)cn1 [Example 157, 1-[4-(3-{(S)-1-Cyclopropyl-1-[6-(5-methylamino-pyrazin-2-yl)-pyridin-3-yl]-ethyl}-[1,2,4]oxadiazol-5-yl)-pyrazol-1-yl]-2-methyl-propan-2-ol] | 969 | 420 | –
CC(C)(O)Cn1cc(-c2nc(C(C)(c3ccc(-c4cnc(N)c(F)c4)nc3)C3CC3)no2)cn1 (centres unmarked) [Example 158, 1-(4-{3-[1-(6′-Amino-5′-fluoro-[2,3′]bipyridinyl-5-yl)-1-cyclopropyl-ethyl]-[1,2,4]oxadiazol-5-yl}-pyrazol-1-yl)-2-methyl-propan-2-ol] | 502 | 230 | –
CC(C)(O)Cn1cc(-c2nc(C(C)(c3ccc(-c4cnc5[nH]ccc5n4)nc3)C3CC3)no2)cn1 (centres unmarked) [Example 159, 1-[4-(3-{1-Cyclopropyl-1-[6-(5H-pyrrolo[2,3-b]pyrazin-2-yl)-pyridin-3-yl]-ethyl}-[1,2,4]oxadiazol-5-yl)-pyrazol-1-yl]-2-methyl-propan-2-ol] | 167 | 27 | –
CC(C)(O)Cn1cc(-c2nc([C@@](C)(c3ccc(-c4cnc(N)nc4C#N)nc3)C3CC3)no2)cn1 [Example 163, 2-Amino-5-[5-((R)-1-cyclopropyl-1-{5-[1-(2-hydroxy-2-methyl-propyl)-1H-pyrazol-4-yl]-[1,2,4]oxadiazol-3-yl}-ethyl)-pyridin-2-yl]-pyrimidine-4-carbonitrile] | 348 | 290 | –
CC(C)(O)Cn1cc(-c2nc([C@@](C)(c3ccc(-c4cnc(N)c(F)c4)nc3)C3CC3)no2)cn1 [Example 177, 1-(4-{3-[(R)-1-(6′-Amino-5′-fluoro-[2,3′]bipyridinyl-5-yl)-1-cyclopropyl-ethyl]-[1,2,4]oxadiazol-5-yl}-pyrazol-1-yl)-2-methyl-propan-2-ol] | 256 | 65 | –
CC(C)(O)Cn1cc(-c2nc([C@](C)(c3ccc(-c4cnc(N)c(F)c4)nc3)C3CC3)no2)cn1 [Example 178, 1-(4-{3-[(S)-1-(6′-Amino-5′-fluoro-[2,3′]bipyridinyl-5-yl)-1-cyclopropyl-ethyl]-[1,2,4]oxadiazol-5-yl}-pyrazol-1-yl)-2-methyl-propan-2-ol] | 2350 | 2000 | –
Cc1nc(N)ncc1-c1ccc(C(C)(c2noc(-c3cnn(CC(C)(C)O)c3)n2)C2CC2)cn1 (centres unmarked) [Example 179, 1-[4-(3-{1-[6-(2-Amino-4-methyl-pyrimidin-5-yl)-pyridin-3-yl]-1-cyclopropyl-ethyl}-[1,2,4]oxadiazol-5-yl)-pyrazol-1-yl]-2-methyl-propan-2-ol] | 483 | 450 | –
Cc1nc(N)ncc1-c1ccc(C(C)(c2noc(-c3cnn(C)c3)n2)C2CC2)cn1 (centres unmarked) [Example 180, 5-(5-{1-Cyclopropyl-1-[5-(1-methyl-1H-pyrazol-4-yl)-[1,2,4]oxadiazol-3-yl]-ethyl}-pyridin-2-yl)-4-methyl-pyrimidin-2-ylamine] | 309 | 190 | –
CC(C)(C)Sc1c(CC(C)(C)C(=O)O)n(Cc2ccc(Cl)cc2)c2ccc(OCc3ccc4ccccc4n3)cc12 [MK-591] | – | – | effect on proteinuria (human glomerulonephritis): reduce proteinuria
CC(C)c1ccc2c(c1)c(SC(C)(C)C)c(CC(C)(C)C(=O)O)n2Cc1ccc(Cl)cc1 [MK-886] | – | – | decrease in plaque area in the aortic root (ApoE−/−xCD4dnTβRII mice): ~40%; decrease in plaque coverage in the aorta [4]: 56%; decrease in plaque coverage in the aortic root [4]: 43%

Now from value to compound, other results behind:

IC50 [2] [nM] | IC50 [3] [nM] | SMILES | further results
150 | 16 | COCCN(C)C(=O)Cn1cc(-c2nc([C@@](C)(c3ccc(-c4cnc(N)nc4)nc3)C(C)C)no2)cn1 [Example 153, 2-[4-(3-{(R)-1-[6-(2-Amino-pyrimidin-5-yl)-pyridin-3-yl]-1,2-dimethyl-propyl}-1,2,4-oxadiazol-5-yl)-pyrazol-1-yl]-N-(2-methoxy-ethyl)-N-methyl-acetamide] | –
110 | 19 | COC1CCN(C(=O)Cn2cc(-c3nc([C@@](C)(c4ccc(-c5cnc(N)nc5)nc4)C(C)C)no3)cn2)CC1 [Example 155, 2-[4-(3-{(R)-1-[6-(2-Amino-pyrimidin-5-yl)-pyridin-3-yl]-1,2-dimethyl-propyl}-1,2,4-oxadiazol-5-yl)-pyrazol-1-yl]-1-(4-methoxy-piperidin-1-yl)-ethanone] | –
54 | 27 | CNc1cnc(-c2ccc([C@](C)(c3noc(-c4cnn(CC(C)(C)O)c4)n3)C3CC3)cn2)cn1 [Example 156, 1-[4-(3-{(R)-1-Cyclopropyl-1-[6-(5-methylamino-pyrazin-2-yl)-pyridin-3-yl]-ethyl}-[1,2,4]oxadiazol-5-yl)-pyrazol-1-yl]-2-methyl-propan-2-ol] | –
23 | 15 | C[C@@](c1ccc(-c2cnc(N)cn2)nc1)(c1noc(-c2cnn(C3COC3)c2)n1)C1CC1 [Example 160, 5-(5-{(R)-1-Cyclopropyl-1[5-(1-oxetan-3-yl-1H-pyrazol-4-yl)-[1,2,4]oxadiazol-3-yl]-ethyl}-pyridin-2-yl)-pyrazin-2-ylamine] | –
32 | 21 | C[C@@](c1ccc(-c2cnc(N)cn2)nc1)(c1noc(-c2cnn(CC#N)c2)n1)C1CC1 [Example 161, [4-(3-{(R)-1-[6-(5-Amino-pyrazin-2-yl)-pyridin-3-yl]-1-cyclopropyl-ethyl}-[1,2,4]oxadiazol-5-yl)-pyrazol-1-yl]-acetonitrile] | –
97 | 40 | CC(C)(O)Cn1cc(-c2nc([C@@](C)(c3ccc(-c4cnc(N)c(C#N)n4)nc3)C3CC3)no2)cn1 [Example 164, 3-Amino-6-[5-((R)-1-cyclopropyl-1-{5-[1-(2-hydroxy-2-methyl-propyl)-1H-pyrazol-4-yl]-[1,2,4]oxadiazol-3-yl}-ethyl)-pyridin-2-yl]-pyrazine-2-carbonitrile] | –
82 | 56 | CNc1ncc(-c2ccc([C@](C)(c3noc(-c4cnn(CC(C)(C)O)c4)n3)C3CC3)cn2)cn1 [Example 165, 1-[4-(3-{(R)-1-Cyclopropyl-1-[6-(2-methylamino-pyrimidin-5-yl)-pyridin-3-yl]-ethyl}-[1,2,4]oxadiazol-5-yl)-pyrazol-1-yl]-2-methyl-propan-2-ol] | –
57 | 41 | Cc1nc(N)cnc1-c1ccc([C@](C)(c2noc(-c3cnn(CC(C)(C)O)c3)n2)C2CC2)cn1 [Example 166, 1-[4-(3-{(R)-1-[6-(5-Amino-3-methyl-pyrazin-2-yl)-pyridin-3-yl]-1-cyclopropyl-ethyl}-[1,2,4]oxadiazol-5-yl)-pyrazol-1-yl]-2-methyl-propan-2-ol] | –
65 | 34 | Cn1cc(-c2nc(C(C)(c3ccc(-c4cnc(N)cn4)nc3)C3CC3)no2)cn1 (centres unmarked) [Example 181, 5-(5-{1-Cyclopropyl-1-[5-(1-methyl-1H-pyrazol-4-yl)-[1,2,4]oxadiazol-3-yl]-ethyl}-pyridin-2-yl)-pyrazin-2-ylamine] | –
